# Experimental data taken from patent US20240108684A1, “DOSING REGIMENS FOR TREATMENT OF FUNGAL INFECTIONS” (priority 2016, published 2024).
# Like-named read-outs stand apart in the source and are kept apart here. *1 amine or outer side, *2 acyl side, *3 side chain or, on linkers, in order; H or OH if unused. Where a SMILES comes first, the peptide text is derived from it. Bridges are numbered along the chain shown (N, C = ends). [ ]: non-standard residue; d: D form. The star is where a group is joined. Orn(4R-OH,5R-OCH2CH2NMe3+) = C[N+](C)(C)CCO[C@@H](N[*:3])[C@H](O)C[C@H](N[*:1])C(=O)[*:2]; pTerphenylCO(4''-OnC5H11) = CCCCCOc1ccc(-c2ccc(-c3ccc(C(=O)*)cc3)cc2)cc1; hTyr(3S-OH,4S-OH) = N[C@H](C(=O)O)[C@H](O)[C@@H](O)c1ccc(O)cc1; Pro(3S-OH,4S-Me) = C[C@H]1CN[C@H](C(=O)O)[C@H]1O; Hyp = O=C(O)[C@@H]1C[C@@H](O)CN1
# Experiments:
# [1] = system: C. glabrata; assay: Mutant prevention concentration (MPC); format: cell-based, Candida glabrata
# From the text: (§1) As used herein, the term “mutant prevention concentration” or “MPC” refers to the concentration of a drug sufficient to suppress the development of all but very rare spontaneous mutants. The range of drug concentrations between the MIC and MPC represents a mutant selection window wherein de novo mutants are most likely to occur. Therapeutic regimens that maximize the duration of drug concentrations in excess of the MPC thereby minimize the potential for resistance development during the course of therapy.
# (§2) Selection of resistance strains in vivo predominantly occurs over a range of drug concentrations falling between the MIC and MPC values. Dosing paradigms that result in plasma drug concentrations in excess of the MPC are therefore more desirable and effective in preventing the development of de novo mutants during the course of therapy (see, e.g., Drlica et al., J. Antimicrob. Chemother. 52:11-17, 2003). Currently approved treatment regimens for caspofungin, micafungin, and anidulafungin involve once-daily dosing at levels such that the Cmax is unlikely to be equivalent to or exceed the MPC at any point during treatment.
# [2] = Pharmacokinetic study, single IP dose; format: in vivo, ICR mice; conditions: 1 to 16 mg/kg IP
# Description: Pharmacokinetic Study. Healthy female ICR mice were given a single dose of CD101 via intraperitoneal (IP) injection. The following doses, at three mice per dose, were studied: 1, 4, and 16 mg/kg.
# [3] = system: glabrata; conditions: Sentry 2014; compared with MIC of 0.5 mg/L; cited from earlier work
# [4] = system: C. albicans (R357); assay: Disseminated infection model with C. albicans R357, kidney fungal counts; format: in vivo, ICR mice
# [5] = system: C.albicans (Strain R303); assay: MIC of the infecting strain R303; conditions: Candida albicans
# [6] = PK model, free-drug plasma concentration-time profiles of fractionated regimens; design: species or system mice
# Description: Pharmacokinetic-Pharmacodynamic Analyses. Using the data collected from the PK study, a PK model was developed in S-ADAPT. Using the developed PK model, concentration-time profiles and AUC0-168h values were computed for each dosing regimen administered in the dose-fractionation study. […] Relationships between the change in log10 CFU from start of therapy and AUC0-168h were explored.
# [7] = system: C.albicans (Strain R303); assay: Dose-fractionation study in neutropenic mice, kidney fungal burden; conditions: 2 mg/kg as a single dose IP, at 168 hours
# Description: Dose-Fractionation Study. Male or female ICR mice (5 per regimen and observation time) weighing 22±2 g were rendered neutropenic for the study by injecting the mice with cyclophosphamide treatment four days (−Day 4) (150 mg/kg IP) and one day (−Day 1) prior to infection at 100 mg/kg IP. Neutropenia was sustained for the duration of the study with cyclophosphamide doses (100 mg/kg IP) every 48 hours on days +1, +3, +5 and +7 after infection.
# Mice were sacrificed 168 hours (7 days) following the start of treatment. Control arm mice were sacrificed 0, 24, and 48 hours post administration of vehicle. Paired kidneys are aseptically harvested, homogenized, and plated for colony counts to determine the fungal burden (CFU/g).
# [8] = Multiple ascending dose IV study in healthy adult subjects (safety, PK); format: in vivo, human; conditions: for Accumulation Ratio AUC0-168 / Accumulation Ratio Cmax: last/first dose; for Cmax / AUC(0-t): human, plasma, intravenous; for AUC(0-t): read-out: AUC0-168
# Description: A second study of CD101 administered by IV injection to healthy adult subjects was also performed. In this study, subjects in 3 cohorts of 8 subjects (6 active, 2 placebo) each were randomized to receive multiple IV doses of CD101 or placebo (normal saline) infused over 60 (±5) minutes. Dose levels of CD101 assessed follow an ascending multiple-dose regimen (100 mg×2 doses, 200 mg×2 doses, or 400 mg×3 doses).
# Pharmacokinetics were determined by analyzing plasma and urine samples for concentration of CD101 obtained from subjects who received CD101 in each cohort at various time points after administration of CD101.
# [9] = system: C. albicans; assay: Mutant prevention concentration (MPC); format: cell-based, Candida albicans
# From the text: as §1, §2
# [10] = system: C. glabrata; assay: Neutropenic murine disseminated candidiasis model, PK/PD; conditions: for 1 log kill dose / Static Dose: single IP dose, 7 days
# [11] = system: C. albicans; conditions: Sentry 2014; compared with MIC of 0.5 mg/L; cited from earlier work
# [12] = Single dose plasma PK after IP doses; conditions: mouse, 64 mg/kg
# [13] = Solubility of test articles in vehicle, visual observation; conditions: 10% DMSO/1% Tween 20 in 0.9% NaCl; 0.3, 1 and 3 mg/mL
# Description: Amphotericin B and fluconazole were in powder form. Amphotericin B was dissolved in 0.9% NaCl. Fluconazole was dissolved in water (WFI: water for injection).
# [14] = system: Candida albicans; assay: Nonclinical studies of Candida albicans infections in mice (PK-PD target); format: in vivo
# Description: Monte Carlo simulations were conducted to assess the probability of PK-pharmacodynamic (PD) target attainment using a variety of exploratory dosing regimens. Two dosing regimens were selected for further investigation (Table 5). […] Nonclinical studies of Candida albicans infections in mice have shown that a CD101 fAUC0-168:MIC ratio of 10 has been associated with a 2-log reduction in fungal burden in infected kidneys. This value of 10 was therefore chosen as the PK-PD target of interest for the Monte Carlo simulations.
# [15] = system: C. albicans; assay: MIC by CLSI standards; conditions: Candida albicans
# [16] = 100 mg x2, 200 mg x2 or 400 mg x3 doses IV
compound,measurement,setting,value
"CCCCCOc1ccc(-c2ccc(-c3ccc(C(=O)N[C@H]4C[C@@H](O)[C@@H](OCC[N+](C)(C)C)NC(=O)[C@@H]5[C@@H](O)[C@@H](C)CN5C(=O)[C@H]([C@@H](C)O)NC(=O)[C@H]([C@H](O)[C@@H](O)c5ccc(O)cc5)NC(=O)[C@@H]5C[C@@H](O)CN5C(=O)[C@H]([C@@H](C)O)NC4=O)cc3)cc2)cc1 [CD101] ({pTerphenylCO(4''-OnC5H11)}-[Orn(4R-OH,5R-OCH2CH2NMe3+)]T[Hyp][hTyr(3S-OH,4S-OH)]T[Pro(3S-OH,4S-Me)]; lactam 1-C)",MPC,[1],16 µg/mL
same,Linearity of PK,[2],linear PK
same,MIC90,[3],0.06 µg/mL
same,Antimicrobial effect versus vehicle (kidney fungal counts),"[4]; 3, 10, and 30 mg/kg IP once, 48 and 72 hr after infection",Significant antimicrobial effects (P<0.05)
same,Reduction in fungal counts,"[4]; all CD101 groups (3, 10, 30 mg/kg IP), 48 and 72 hr",two log reduction
same,MIC,[5],0.125 µg/mL
same,Time free-drug plasma concentrations of single dose remain above the daily regimen,[6]; 2 mg/kg total dose,48 h
same,Time free-drug plasma concentrations of single dose remain above the twice weekly regimen,[6]; 2 mg/kg total dose,84 h
same,Free-drug plasma AUC0≥,[6]; CD101 2 mg/kg as a single dose,0.0654 mgh/L
same,Free-drug plasma AUC0≥,"[6]; CD101 2 mg/kg total, daily regimen",0.00948 mgh/L
same,Free-drug plasma AUC0≥,"[6]; CD101 2 mg/kg total, twice weekly",0.0303 mgh/L
same,CFU reduction from baseline,[7],greater than 2 log10 CFU
same,Accumulation Ratio AUC0-168,[8]; 100 mg (Day 1/Day 8),1.30
same,Accumulation Ratio Cmax,[8]; 100 mg (Day 1/Day 8),1.14
same,Drug-related AEs from laboratory abnormalities,[8]; [16],no drug-related AEs resulting from clinically significant hematology or clinical chemistry laboratory abnormalities at any dose
same,"ECG, vital signs, physical exam",[8]; [16],"no safety issues related to ECGs, vital signs, or physical exam findings"
same,Serious and severe adverse events,[8]; [16],no SAEs or severe AEs
same,Severity and resolution of AEs,[8]; [16],"majority of AEs were mild, and all related AEs completely resolved by the end of the study"
same,Accumulation Ratio AUC0-168,[8]; 200 mg (Day 1/Day 8),1.43
same,Accumulation Ratio Cmax,[8]; 200 mg (Day 1/Day 8),1.17
same,Accumulation Ratio AUC0-168,[8]; 400 mg (Day 1/Day 8/Day 15),1.55
same,Accumulation Ratio Cmax,[8]; 400 mg (Day 1/Day 8/Day 15),1.34
same,Cmax,"[8]; 100 mg, 100 mg weekly, Day 1",5670 ng/mL
same,AUC(0-t),"[8]; 100 mg, 100 mg weekly, Day 1",299 µg·h/mL
same,Cmax,"[8]; 100 mg, 100 mg weekly, Day 8",6490 ng/mL
same,AUC(0-t),"[8]; 100 mg, 100 mg weekly, Day 8",390 µg·h/mL
same,Cmax,"[8]; 200 mg, 200 mg weekly, Day 1",10600 ng/mL
same,AUC(0-t),"[8]; 200 mg, 200 mg weekly, Day 1",570 µg·h/mL
same,Cmax,"[8]; 200 mg, 200 mg weekly, Day 8",12400 ng/mL
same,AUC(0-t),"[8]; 200 mg, 200 mg weekly, Day 8",813 µg·h/mL
same,Cmax,"[8]; 400 mg, 400 mg weekly, Day 1",22700 ng/mL
same,AUC(0-t),"[8]; 400 mg, 400 mg weekly, Day 1",1190 µg·h/mL
same,Cmax,"[8]; 400 mg, 400 mg weekly, Day 15",30500 ng/mL
same,AUC(0-t),"[8]; 400 mg, 400 mg weekly, Day 15",1840 µg·h/mL
same,Safety and tolerability,[8]; multiple doses up to 400 mg,safe and well tolerated
same,Infusion reactions,"[8]; primarily 400 mg cohort, most common with third dose","Four subjects in the CD101 group experienced mild, transient infusion reactions"
same,MPC,[9],16 µg/mL
same,1 log kill Ave 24 h AUC/MIC,[10]; C. glabrata 5592,114
same,Stasis Ave 24 h AUC/MIC,[10]; C. glabrata 5592,21.7
same,1 log kill dose,[10]; C. glabrata 5592,0.51 mg/kg
same,Static Dose,[10]; C. glabrata 5592,0.03 mg/kg
same,1 log kill Ave 24 h AUC/MIC,[10]; C. glabrata 10956,301
same,Stasis Ave 24 h AUC/MIC,[10]; C. glabrata 10956,120
same,1 log kill dose,[10]; C. glabrata 10956,17.3 mg/kg
same,Static Dose,[10]; C. glabrata 10956,6.29 mg/kg
same,1 log kill Ave 24 h AUC/MIC,[10]; C. glabrata 35315,105
same,Stasis Ave 24 h AUC/MIC,[10]; C. glabrata 35315,17.9
same,1 log kill dose,[10]; C. glabrata 35315,2.39 mg/kg
same,Static Dose,[10]; C. glabrata 35315,0.34 mg/kg
same,MIC90,[11],0.06 µg/mL
same,AUC(0-inf),[12],93 to 4050 µg·h/mL
same,Cmax,[12],2600 to 77000 ng/mL
same,half-life,[12],28 to 41 h
same,Solubility,[13],S
same,fAUC0-168:MIC ratio associated with a 2-log reduction in fungal burden in infected kidneys,[14],10
same,MIC,[15]; C. albicans 98-17,0.06 µg/mL
same,MIC,[15]; C. albicans 98-210,0.016 µg/mL
same,MIC,[15]; C. albicans 580,0.016 µg/mL
same,MIC,[15]; C. albicans K-1,0.008 µg/mL
same,MIC,"[15]; read-out: MICs, 4 C. albicans strains",0.008 to 0.06 µg/mL
